# Measurements reported in patent US20100092443A1, “NOVEL COMBINATIONS OF NITROGENATED HETEROCYCLIC ANTIBACTERIAL COMPOUNDS WITH OTHER ANTIBACTERIAL COMPOUNDS AND THE USE OF SAME AS DRUGS” (priority 2008, published 2010).
# Where a name gives a salt, the structure may show the parent alone.
# Tests used:
# P. aeruginosa (391 HT2) [1] = assay: MICs determined on microplates; format: cell-based, Pseudomonas aeruginosa; details: sensitive strain P. aeruginosa 391 HT2
# Protocol: (§1) The minimum inhibitory concentrations (MICs) of the products to be tested (products alone and combinations) are determined in advance. • For each concentration of product to be tested as well as the control stock, an Erlenmeyer flask containing 18.5 ml Muller-Hinton medium (Ca^++) is prepared. • From an overnight culture in broth or a bacterial suspension of OD (optical density)=1, a 1/100 dilution is prepared. • The sample is cultured with agitation for 2 h at 37° C. • OD is measured: if >0.5, the sample is diluted to 1/10. • Each Erlenmeyer flask is inoculated with 1 ml of the agitated culture or its dilution. The initial inoculum should be 1×10^6 CFU/ml. • The various antibiotic solutions are added at a volume of 0.5 ml and 0.5 ml of medium in the control Erlenmeyer flask. • With a volume of 0.1 ml, the control Erlenmeyer flask is numbered=TO. • The flask is incubated at 37° C. with agitation. • At each sampling point (2, 4, 6, 24, 48 hours), a volume of 0.1 ml is sampled from each Erlenmeyer flask and numbered. • Plates for all the numbered samples are incubated (24 h-48 h) at 37° C.
# Bactericidal activity was evaluated on a sensitive strain of P. aeruginosa (391 HT2)
# P. aeruginosa (391 HT2) [2] = assay: MICs in a volume of 10 ml, bactericidal conditions (exponential bacterial growth); format: cell-based, Pseudomonas aeruginosa
# Protocol: as §1
# For the bactericidal tests, MICs are determined in a volume of 10 ml-bactericidal conditions (exponential bacterial growth): […]
smiles,measurement,setting,value
"Cn1ncc2c1[C@@H](CN)N1C[C@H]2N(OS(=O)(=O)O)C1=O (relative stereo) [NXL105, Sodium and Trifluoroacetate Salts of trans 8-(aminomethyl)-4,8-dihydro-1-methyl-5-(sulphooxy)-4,7-methano-7H-pyrazolo[3,4-e][1,3]diazepin-6(5H)-one]",MIC determined on microplates,P. aeruginosa (391 HT2) [1],0.25 µg/mL
same,"MIC in a volume of 10 ml, bactericidal conditions",P. aeruginosa (391 HT2) [2],0.25 µg/mL
CC(C)(O/N=C(\C(=O)N[C@@H]1C(=O)N2C(C(=O)[O-])=C(C[n+]3ccccc3)CS[C@H]12)c1csc(N)n1)C(=O)O [Ceftazidime],MIC,P. aeruginosa (391 HT2) [1]; Pseudomonas aeruginosa,2 µg/mL
same,MIC,P. aeruginosa (391 HT2) [2]; Pseudomonas aeruginosa,8 µg/mL
